One assay has as its system CWR22R. Description: Antitumor activity against human CWR22R cells. In kind it is functional, cell-based. The following applies: 22Rv1.
For another assay, the system named is PC-3. Description: Antitumor activity against human PC-3 cells. It is filed as functional, cell-based.
In a further assay the test system is LNCaP. The assay is described as follows: Antitumor activity against human LNCaP cells. It is filed as functional, cell-based.
For assay [1], the system named is Human immunodeficiency virus. Description: Antiviral activity against HIV. In kind it is functional, organism-based. The following applies: Human immunodeficiency virus 1.
A short description of assay [2]: […] activity against Eupenicillium abidjanum IFO 8939. In kind it is functional. The following applies: Penicillium abidjanum.
The next assay deals with Jurkat. Description: Cytotoxicity against human Jurkat cells after 72 hrs by microtitre plate assay. In kind it is functional, cell-based.
Assay [3] is described as follows: Cytotoxicity against mouse NS-1 cells after 72 hrs by microtitre plate assay. The following applies: NS1, 72 h. In kind it is functional, cell-based.
For another assay, the system named is HepG2. Description: Growth inhibition of human HepG2 cells. In kind it is functional.

This note sets out measurements from ChEMBL document CHEMBL4725254, “Irregularly Bridged Epipolythiodioxopiperazines and Related Analogues: Sources, Structures, and Biological Activities” (J Nat Prod, 2020).

For orientation: IC50 means the concentration at which inhibition is half-maximal. The low end stands for higher potency, the high end for lower potency. By MIC is commonly meant the lowest concentration found to suppress growth. Lower therefore signals a more susceptible organism. One may read the GI50 as the concentration giving 50% growth inhibition. A high value points to less potent growth inhibition.

In brackets after ≈: the same amount, converted by molar mass.

With `COc1ccc([C@H]2SS[C@@]34C[C@]5(O)[C@H](Cl)C=C[C@@H](O)[C@@H]5ON3C(=O)[C@@H]2N(C)C4=O)c(O)c1OC`, the IC50 with CWR22R amounted to 0.51 µM; in the assay with PC-3, 5.1 µM; with LNCaP, 1.8 µM. The compound `CS[C@@]12CC3=CC=C[C@H](O)[C@H]3N1C(=O)[C@@]13C[C@H]4C(=O)C[C@@H](SS1)[C@H](O)[C@H]4N3C2=O` came in with an IC50 in assay [1] of 16 µM. As to `CS[C@@]12C[C@H]3C(=O)CC[C@H](O)[C@H]3N1C(=O)[C@@]13C[C@@H]4[C@@H]([C@@H](O)C=C[C@@H]4S1)N3C2=O`, in assay [1], the IC50 worked out at 10 µM. On to `CS[C@@]12CC3=CC=C[C@H](O)[C@H]3N1C(=O)[C@@]13C[C@H]4C(=O)C[C@@H](S1)[C@H](O)[C@H]4N3C2=O`, for which half-maximal inhibition in assay [1] (IC50) required 10 µM. For the compound `COc1ccc([C@H]2SS[C@@]34C[C@]56O[C@H]5C=C[C@@H](O)[C@@H]6ON3C(=O)[C@@H]2N(C)C4=O)c(O)c1OC`, the lowest concentration to inhibit growth in assay [2] (MIC) was 10 µg/mL (≈ 20.2 µM). With `CS[C@@]12CC3=CC=C[C@H](O)[C@H]3N1C(=O)[C@]13C[C@H]4C(=O)[C@H](C[C@H](O)[C@H]4N1C2=O)S3`, the IC50 in assay [1] stood at 10 µM. On the same count and under the same terms, in the case of `CS[C@@]12CC3=CC=C[C@H](O)[C@H]3N1C(=O)[C@@]13C[C@@H]4[C@@H]([C@@H](O)[C@@H](C[C@@H]4O)S1)N3C2=O` it was 10 µM.

`COc1ccc2cc(NC(=O)[C@@]34C[C@]5(O)[C@@H](C=C[C@@H](O)[C@@H]5ON3)SS4)c(=O)oc2c1OC`: the half-maximal inhibitory concentration (IC50) with Jurkat was 1.3 µM; in assay [3] it was 10 µM. `COc1ccc([C@H]2SS[C@@]34C[C@]5(O)[C@H](Cl)C=C[C@@H](O)[C@@H]5ON3C(=O)[C@@H]2NC4=O)c(O)c1OC` came in with an IC50 in the assay on Jurkat of 5.1 µM. In assay [1], `CS[C@@]12C[C@H]3C(=O)CC[C@H](O)[C@H]3N1C(=O)[C@@]13C[C@@H]4[C@@H]([C@@H](O)[C@@H](C[C@@H]4O)S1)N3C2=O` returned a 50% inhibitory concentration (IC50) of 10 µM. For the compound `CSC1c2ccccc2O[C@]12C(=O)N1O[C@]3(CCC=CC3=O)[C@@H](O)C1(SC)C(=O)N2C` (stereo not given in full), in the assay with HepG2, growth was halved (GI50) at 8 µM. On to `CS[C@@]12C[C@H]3C(=O)CC[C@H](O)[C@H]3N1C(=O)[C@@]13C[C@H]4C(=O)C[C@@H](S1)[C@H](O)[C@H]4N3C2=O` [EPICOCCIN O], for which, in assay [1], the concentration for half-maximal inhibition (IC50) is 10 µM.
